Results: patent US20130302344A1, “METHODS AND MEDICAMENTS FOR THE TREATMENT OF GOUT OR PSEUDOGOUT” (TOPOTARGET SWITZERLAND SA, priority 2006, published 2013)
“Also recorded” adds a separate entry of the source.

Assays:
[1] = system: THP1 cells; assay: IL-1β maturation in PMA-primed THP1 cells stimulated with crystals or ATP (Western blot); format: cell-based, human
Experimental: a-c, THP1 cells were stimulated for 6 h with the indicated amounts/ml of MSU crystals (a), CPPD (b) or with 50 μg/ml of pure LPS, MSU, allopurinol crystals, CPPD crystals, diamond crystals, aluminum particles, zymosan, crude preparations of LPS, or 5 mM of extracellular ATP as indicated (c). Supernatants (SN) were analyzed for the presence of mature IL-1β, IL-18 or caspase-1, and cell extracts (Cell) for the presence of proIL-1β and proIL-18. d, human monocytes were stimulated with 50 μg/ml of the indicated crystals for 6 h and analyzed by Western blot for IL-1β activation or by ELISA for released. caspase-1 and IL-1β.
THP1 cells were pre-treated with the P2X antagonist pyridoxal-phosphate-6-azophenyl-2′,4′-disulfonic acid (PPADS, Alexis) for 30 min and subsequently stimulated for 6 h with MSU crystals (50 μg/ml). Supernatants (SN) were analyzed for the presence of mature IL-1β and cell extracts (Cell) for the presence of proIL-1β.
THP1 cells were stimulated with MSU, CPPD or ATP in the presence or absence of colchicine (colch). Maturation of IL-1β was analyzed by Western Blot.
(§1) THP1 were stimulated for 3 h with 0.5 μM of PMA the day before stimulation as described^10. This treatment increases the phagocytic properties of the cells and induces a constitutive production of proIL-1β^33. Human monocytes were purified as described before^30. All cells were stimulated in OptiMEM medium as indicated. Human mature IL-1β was detected with a specific antibody directed. against the cleaved epitope (D116) from Cell Signalling, or with an Enzyme-linked immunoabsorbent assay (ELISA) from BD bioscience. TNF and IL-6 were detected by an ELISA from ImmunoTools and caspase-1 by an ELISA from Alexis. IL-18 was detected. with an antibody from MBL (D044-3) and. Caspase-1 with an antibody from Santa Cruz Biotechnology (sc-622), The antibody against human IL-1β[…] was a gift from Roberto Solari, Glaxo. z-YVAD-fmk was purchased from Alexis Biochemicals. IL-1ra (anakinra, Kineret) was from Amgen (thousand Oaks, USA).

[2] = system: gout; assay: Case reports of patients with proven gout; format: in vivo, human; settings: for response of gouty arthritis to earlier treatment: cases 3 and 4, prednisone 30 mg daily tapering over 7 days, colchicine 1 mg daily; for adverse effects of earlier gout treatments: patient history in cases 1-4, doses as stated per case; for response of acute gouty arthritis / recurrence on follow-up: gout patients; for response of acute gouty arthritis: anakinra 100 mg daily for 2-3 days (cases 1-3); for recurrence on follow-up: one to two months after anakinra
Experimental: Four patients with proven gout were treated with anakinra (Kineret).

[3] = system: MSU-induced inflammation; settings: intravenous pretreatment; cited from earlier work
[4] = oral; cited from earlier work
[5] = system: mouse peritoneal exudate cells; assay: IL-1β production by mouse peritoneal macrophages (ELISA); format: cell-based
Experimental: (§2) BALB/C mice were intraperitoneally injected with a 4% solution of thioglycollate. Six days later, peritoneal exudate cells (PEC) were collected by washing the peritoneal cavity with phosphate buffer saline. Cells were distributed in wells of tissue culture 12 well plates (10^6 cells/well). Non-adherent cells were washed and adherent cells were treated. with 1 μg/ml of Ultrapure LPS (Invivogen) in the presence or the absence of 200 nM of 17-AAG (Invivogen). (a) After overnight culture, the supernatants were collected and used for determination of TNF by ELISA. (b, c) Fresh medium was added on the cells in the presence or the absence of 2 mM of ATP or 100 μg/ml MSU. After 5 hours, the supernatants were collected and IL-1β was determined by ELISA. (d) Mouse peritoneal macrophages were treated with 500 ng/ml of Ultrapure LPS (Invivogen) in the presence or the absence of 50 nM of 17-DMAG (Invivogen). 2 hours later, cells were stimulated with 500 μg/ml MSU. After 4 hours, the supernatants were collected and IL-1β was determined by ELISA. (e) Human blood monocytes were treated with 1 μg/ml of Ultrapure LPS (Invivogen) in the presence or the absence of graded doses of 17-DMAG (Invivogen). After overnight culture, cells were stimulated with 100 μg/ml MSU. After 6 hours, the supernatants were collected and IL-1β was determined by ELISA.
Eight to twelve week-old mice of indicated genotypes were injected i.p. with 4% thioglycollate solution, and macrophages were collected by peritoneal lavage 3-6 days later. Cells were plated at the density of 7×10^5 cells in twelve-well dishes and. non-adherent cells were removed after 3 h. Cells were cultured in RPMI complemented with 10% FCS, sodium pyruvate, penicillin/streptomycin and L-glutamin. All cells were stimulated in OptiMEM medium as described above. Caspase-1 was analyzed using an antibody from Santa Cruz Biotechnology (se-514) and ASC using an antibody as described previously^34. The antibody against mouse IL-1β[…]was a gift from Roberto Solari, Glaxo. […]

[6] = system: mouse peritoneal exudate cells; assay: TNF production by LPS-treated mouse peritoneal exudate cells (ELISA); format: cell-based; settings: 200 nM, 1 μg/ml LPS overnight; FIG. 8a
Experimental: as §2, with “2 hours later, cells were stimulated with 500 μg/ml MSU.” left out, “(e) Human blood monocytes were treated with 1 μg/ml of Ultrapure LPS (Invivogen) in the presence or the absence of graded doses of 17-DMAG (Invivogen). After overnight culture, cells were stimulated with 100 μg/ml MSU.” left out
Eight to twelve week-old mice of indicated genotypes were injected i.p. with 4% thioglycollate solution, and macrophages were collected by peritoneal lavage 3-6 days later. […] Caspase-1 was analyzed using an antibody from Santa Cruz Biotechnology (se-514) and ASC using an antibody as described previously^34. […]

[7] = system: human blood monocytes; assay: IL-1β production by MSU-stimulated human blood monocytes (ELISA); format: cell-based; settings: graded doses, LPS overnight, 100 μg/ml MSU 6 h; FIG. 8e
Experimental: as §2

[8] = system: MSU-induced neutrophil recruitment; assay: MSU crystal-induced aseptic peritonitis, neutrophil recruitment (FACS); format: in vivo, mouse
Experimental: Aseptic peritonitis was induced in female C57BL/6 mice by injection of 500 μg monosodium urate crystals (MSU) with PBS, 200 μg anakinra (Kineret, Amgen Inc., Thousand Oaks, USA), 200 μg anti-IL-1RI monoclonal antibody (BD Pharmingen, San Jose, USA), 200 μg anti-IL-1α monoclonal antibody (Biolegend, San Diego, USA), 200 μg anti-IL-1β monoclonal antibody ((Biolegend, San Diego, USA), or combination of 200 μg anti-IL-1α monoclonal antibody and 200 μg anti-IL-1β monoclonal antibody. After 6 h, mice were killed and the peritoneal cavity was washed with 10 ml of cold PBS. The lavage fluids were analyzed for neutrophil recruitment by FACS using the neutrophil markers CD11b and Gr1 (Ly-6G). Values are±s.e.m. of total neutrophil counts with 4-5 animals per group, Unpaired Students t test was used to calculate P value. […] The lavage fluids were analyzed for neutrophil recruitment by FACS using the neutrophil markers CD11b and Gr1 (Ly-6G), Values are±s.e.m. of total neutrophil counts with 4-5 animals per group. […] The lavage fluids were analyzed for neutrophil recruitment by FACS using the neutrophil markers CD11b and Gr1 (Ly-6G). […] The lavage fluids were analysed for PMN recruitment by FACS using the neutrophil marker Ly-6G and CD11b (BD Pharmingen).

[9] = system: THP1 cells; assay: TNF-α production by stimulated THP1 cells (ELISA); format: cell-based, human; settings: FIG. 5a
Experimental: (§3) a, THP1 cells were stimulated with MSU, CPPD or Zymosan (Zym) for the indicated, times in the presence or absence of the caspase-1 inhibitor zYVAD-fink. Supernatants were analyzed for TNF-α (gray bars) and IL-1β (black bars) production by ELISA. b, human monocytes were incubated with MSU or CPPD in the presence of two concentrations of IL-1Ra. TNF-α and IL-6 production was monitored by ELISA.
as §1

[10] = system: human monocytes; assay: TNF-α and IL-6 production by human monocytes incubated with MSU or CPPD (ELISA); format: cell-based; settings: two concentrations of IL-1Ra, FIG. 5b
Experimental: as §3, §1

Molecule: COc1cc2c(c(OC)c1OC)-c1ccc(OC)c(=O)cc1[C@@H](NC(C)=O)CC2 [colchicine]
- IL-1β activation by extracellular ATP ([1]; FIG. 6): did not affect
- crystal-induced processing of IL-1β ([1]; MSU or CPPD, pretreatment, FIG. 6): completely blocked
- response of gouty arthritis to earlier treatment [2]: ineffective
- adverse effects of earlier gout treatments [2]: rectal bleeding; also recorded: diarrhea
- adverse effects of earlier gout treatments ([2]; listed as Colchicine): intolerable diarrhea; also recorded: rapid onset of diarrhea
- inflammation after intraarticular MSU injections [3]: greatly reduces inflammation
- side effects limiting use [4]: nausea and abdominal pain

Molecule: C=CCNC1=C2C[C@@H](C)C[C@H](OC)[C@H](O)[C@@H](C)/C=C(\C)[C@H](OC(N)=O)[C@@H](OC)/C=C\C=C(/C)C(=O)NC(=CC1=O)C2=O [17-AAG, 17-(Allylamino)-17-demethoxygeldanamycin]
- production of IL-1β by mouse macrophages stimulated by MSU crystals ([5]; 200 nM, LPS overnight, 100 μg/ml MSU 5 h, FIG. 8c): almost completely inhibited
- production of IL-1β by mouse macrophages stimulated by ATP ([5]; 200 nM, LPS overnight, 2 mM ATP 5 h, FIG. 8b): almost completely inhibited
- reduction of TNFα production [6]: less than 50%

Molecule: CO[C@H]1/C=C\C=C(/C)C(=O)NC2=CC(=O)C(NCCN(C)C)=C(C[C@@H](C)C[C@H](OC)[C@H](O)[C@@H](C)/C=C(\C)[C@@H]1OC(N)=O)C2=O [17-DMAG, 17-(Dimethylaminoethylamino)-17-demethoxygeldanamycin]
- production of IL-1β by mouse macrophages stimulated by MSU crystals ([5]; 50 nM, LPS 2 h, 500 μg/ml MSU 4 h, FIG. 8d): inhibited
- production of IL-1β by human blood monocytes stimulated by MSU crystals [7]: inhibited
- neutrophil influx in response to MSU ([8]; female BALB/C mice, 25 mg/kg intraperitoneally 1 h before 500 μg MSU, FIG. 14): reduced

Molecule: COC(=O)C[C@H](NC(=O)[C@H](C)NC(=O)[C@@H](NC(=O)[C@H](Cc1ccc(O)cc1)NC(=O)OCc1ccccc1)C(C)C)C(=O)CF [zYVAD-fmk]
- MSU-induced IL-1β activation ([1]; MSU crystals, 6 h, FIG. 1a): completely blocked
- TNF-α production by the TLR2 agonist Zymosan [9]: without affecting
- reduction of TNF-α production induced by MSU and CPPD [9]: more than 50%

Molecule: CCc1oc2ccccc2c1C(=O)c1cc(Br)c(O)c(Br)c1 [benzbromazone]
- adverse effects of earlier gout treatments [2]: renal stones

Molecule: anakinra: IL-1 receptor type I (IL-1RI) antagonist, IL-1Ra also known as anakinra, marketed under the name Kineret
- IL-6 production by human monocytes [10]: significantly affected
- TNF-α production by human monocytes [10]: significantly affected
- neutrophil influx ([8]; female C57BL/6 mice, 500 μg MSU, 200 μg of each agent, 6 h, FIG. 12): almost entirely prevented
- response of acute gouty arthritis [2]: complete resolution of arthritis by the second day; also recorded: responded rapidly
- response of acute gouty arthritis ([2]; listed as Anakinra): rapid reduction in joint pain over 48 h
- response of acute gouty arthritis ([2]; listed as Anankinra): rapid resolution of signs and symptoms of arthritis
- recurrence on follow-up [2]: no recurrence of arthritis; also recorded: asymptomatic two months later
- recurrence on follow-up ([2]; listed as Anakinra): No acute flares
- recurrence on follow-up ([2]; listed as Anankinra): no further flare-ups

Molecule: O=C(O)Cc1ccccc1Nc1c(Cl)cccc1Cl [diclofenac]
- adverse effects of earlier gout treatments [2]: gastrointestinal side effects including one episode of G-I hemorrhage

Molecule: C[C@]12C=CC(=O)C=C1CC[C@@H]1[C@@H]2C(=O)C[C@@]2(C)[C@H]1CC[C@]2(O)C(=O)CO [prednisone]
- response of gouty arthritis to earlier treatment [2]: the arthritis remained active

Molecule: Oc1ncnc2[nH]ncc12 [allopurinol]
- adverse effects of earlier gout treatments [2]: severe cutaneous reaction; also recorded: acute gout developed after the first dose; also recorded: induced flare-ups of arthritis
